{"source": "patent US20230218714A1", "about": "“DIAGNOSTICS AND USE OF QUORUM SENSING MOLECULES IN MUSCLE WASTING” (Universiteit Gent, priority 2019, published 2023)", "key": {"C2C12 cells [1]": {"test_system": "C2C12 cells", "assay": "Co-treatment of C2C12 cells with QSP and ala-scan derivative, IL-6 response", "format": "cell-based, mouse", "settings": "Q176 50 μM plus derivative 60 μM", "description": "(§1) Means±SEM, n=6. * P<0.05; ** P<0.01, *** P<0.001; paired Student's t test."}, "C2C12 cells [2]": {"test_system": "C2C12 cells", "assay": "Co-treatment of C2C12 cells with Q176 and ala-scan derivative, MTT response", "format": "cell-based, mouse", "settings": "Q176 50 μM plus derivative 60 μM", "description": "as §1"}, "human muscle cells": {"test_system": "human muscle cells", "assay": "IL-6 production dose response in human muscle cells", "format": "cell-based", "settings": "FIG. 12", "method": "Differentiation medium consisted of high glucose Glutamax DMEM supplemented with penicillin (100 units/ml), streptomycin (100 μg/ml) and insulin (10 μg/mL).\nUsing similar methods as described for the C2C12 experiments, a number of QSPs were tested for a dose response relation in human muscle cells."}, "[3]": {"test_system": "IL-6 production by C2C12 myotubes", "assay": "IL-6 production by C2C12 myotubes (sandwich ELISA)", "format": "cell-based, mouse", "settings": "for Effect: inflammation (IL-6 production, hit direction): screening at 1 μM", "method": "C2C12 myoblasts (2.5×10^4 cells/well) were seeded in 96-well plates and incubated until they reached 80% confluency, after which the proliferation medium was removed and replaced by differentiation medium. After 6 days of incubation with daily renewed differentiation medium, the cells were treated with 1 μM of QSM, placebo or positive control (LPS) for 24 hours. IL-6 levels were determined in the supernatants using a sandwich ELISA (eBioscience), using IL-6 capture antibody, blocking solution, samples and standards, IL-6 detection antibody, avidin-horseradish peroxidase and substrate solution which were added sequentially, with washing steps in between. After stopping the reaction with H2SO4 solution, the absorbance was measured at 450 nm and 570 nm (correction wavelength) using a microplate reader (ThermoLab Systems). Concentrations were determined using the standard curves generated with known concentrations of IL-6.\nSeveral pro-inflammatory cytokines are elevated in sepsis, cancer, ageing and other catabolic diseases. They are thought to trigger muscle wasting (partly) through NF-kB pathways. […] In these screening experiments, the effects of QSM on myotube IL-6 production were assessed using a sandwich ELISA.\nIn a further set of experiments, using similar methods as described for the screening experiments, a number of QSPs were tested for a dose response relation in C2C12 cells."}, "[4]": {"test_system": "GDF15 production by C2C12 myotubes", "assay": "GDF15 production by C2C12 myotubes (sandwich ELISA), mitochondrial changes", "format": "cell-based, mouse", "settings": "QSM 1 μM, C2C12 myotubes", "method": "GDF15 levels were determined in the supernatants of C2C12 cells after QSM, placebo or positive control (oligomyin) treatment, using a sandwich ELISA (R&D Systems). A similar protocol as described for the IL-6 determination was used.\nGDF15 is considered a useful biomarker for direct or indirect changes in mitochondrial function. Moreover, GDF15 is implicated in muscle wasting diseases like sarcopenia, chronic obstructive pulmonary disease cachexia and critical illness."}, "[5]": {"test_system": "atrogin, MuRF1, caspase 3 and atg7", "assay": "Protein degradation gene expression in C2C12 cells (RT-qPCR)", "format": "cell-based, mouse", "method": "C2C12 cells were seeded in 6-well (4×10^5 cells/well) or 12-well plates (1.5×10^5 cells/well). […] Thereafter, cells were scraped off from the well surface and resuspended in RLT lysis buffer (Qiagen). RNA was extracted from these lysed cells using RNeasy micro columns (Qiagen). Subsequently, RNA was reverse-transcribed using a mix of oligo-dT and random primers together with Quantiscript reverse transcriptase (Qiagen). DNAse steps were included in the protocol to remove possible DNA contamination. Real-time PCR was performed starting with 7.5 ng cDNA and both sense and antisense oligonucleotides in a final volume of 8 μl in a 384-well plate using the SensiMix SYBR green PCR master mix (Bioline). The following genes were analysed: atrogin, MuRF1, caspase 3 and atg7.\nThe second derivative method was used to determine the threshold or Cq values, with analysis of Ppia (Peptidylprolyl isomerase A), Rer (Rhodopsin enhancer region) and Hprt (Hypoxanthine-guanine phosphoribosyltransferase) mRNA to normalize gene expression (delta Cq method). […]\nTo screen the possible effects of 75 QSM on these 3 proteolysis systems, mRNA transcripts of the following representative genes were measured: atrogin and MuRF1 (UPS), caspase 3 (apoptosis system) and autophagy-related protein 7 (autophagy system). […]"}}, "note": "Values joined by “and” are separate entries in the source; they are usually repeats but may differ in a detail not shown here. Identical values can stand only once. “Also recorded” adds a separate entry of the source."}
{"substance": "GSLSTFFRLFNASFTQALGK (Synthetic Q176-A13)", "values": [{"measurement": "effect on Q176 mediated IL-6 induction", "setting": "C2C12 cells [1]", "result": "inhibiting the Q176 mediated IL-6 induction"}, {"measurement": "effect on Q176 mediated IL-6 induction", "setting": "C2C12 cells [1]; listed as QSP176-A13", "result": "clearly abolishes both effects"}, {"measurement": "effect on Q176 mediated MTT effect", "setting": "C2C12 cells [2]", "result": "inhibiting the Q176 mediated MTT effect"}, {"measurement": "effect on Q176 mediated MTT effect", "setting": "C2C12 cells [2]; listed as QSP176-A13", "result": "clearly abolishes both effects"}]}
{"substance": "KSSAYSLQMGATAIKQVKKLFKKWGW [Q125]", "values": [{"measurement": "dose response relation, IL6 production", "setting": "human muscle cells", "result": "Typical curves were obtained"}, {"measurement": "relative IL-6 production", "setting": "[3]; QSM 1 μM, 24 h, relative to median of all QSM", "result": 171, "unit": "%"}, {"measurement": "Relative IL-6", "setting": "[3]; concentration 0.20 μM", "result": 0.89}, {"measurement": "Relative IL-6", "setting": "[3]; concentration 0.39 μM", "result": 0.90}, {"measurement": "Relative IL-6", "setting": "[3]; concentration 1.56 μM", "result": 1.28}, {"measurement": "Relative IL-6", "setting": "[3]; concentration 3.13 μM", "result": 1.96}, {"measurement": "Relative IL-6", "setting": "[3]; concentration 6.25 μM", "result": 2.08}, {"measurement": "Relative IL-6", "setting": "[3]; concentration 12.5 μM", "result": 4.89}, {"measurement": "Relative IL-6", "setting": "[3]; concentration 25 μM", "result": 5.55}, {"measurement": "Relative IL-6", "setting": "[3]; concentration 50 μM", "result": 8.23}, {"measurement": "Relative IL-6", "setting": "[3]; concentration 100 μM", "result": 9.80}, {"measurement": "Effect: inflammation (IL-6 production, hit direction)", "setting": "[3]", "result": "increased IL-6 production; also recorded: ↑ inflammation"}]}
{"substance": "NEVPFEF [Q146]", "values": [{"measurement": "GDF15 secretion, effect relative to median", "setting": "[4]", "result": 80, "unit": "%"}, {"measurement": "decrease in MuRF1 gene expression compared to placebo", "setting": "[5]; QSM 1 μM, 24 h, individual screening", "result": "~20% and 20%"}, {"measurement": "Effect: proteolysis (hit direction)", "setting": "[5]; screening at 1 μM", "result": "↓ proteolysis"}]}
{"substance": "SGSLSTFFRLFNRSFTQALGK [Q176]", "values": [{"measurement": "dose response relation, IL6 production", "setting": "human muscle cells", "result": "Typical curves were obtained"}, {"measurement": "Relative IL-6", "setting": "[3]; concentration 0.20 μM", "result": 1.00}, {"measurement": "Relative IL-6", "setting": "[3]; concentration 0.39 μM", "result": 0.89}, {"measurement": "Relative IL-6", "setting": "[3]; concentration 1.56 μM", "result": 1.53}, {"measurement": "Relative IL-6", "setting": "[3]; concentration 3.13 μM", "result": 1.61}, {"measurement": "Relative IL-6", "setting": "[3]; concentration 6.25 μM", "result": 2.39}, {"measurement": "Relative IL-6", "setting": "[3]; concentration 12.5 μM", "result": 3.24}, {"measurement": "Relative IL-6", "setting": "[3]; concentration 25 μM", "result": 3.49}, {"measurement": "Relative IL-6", "setting": "[3]; concentration 50 μM", "result": 5.81}, {"measurement": "Relative IL-6", "setting": "[3]; concentration 100 μM", "result": 6.01}, {"measurement": "Effect: inflammation (IL-6 production, hit direction)", "setting": "[3]", "result": "increased IL-6 production; also recorded: ↑ inflammation"}]}
